Measurements published in patent publication US12564641B2 (EISAI R&D MANAGEMENT CO., LTD., priority 2019, dated 2026).
pIC50: −log10 of the molar value. Read-outs that look alike come from different tables or passages of the source.

Columns and labels:
human NSCLC PDX LXFA-586 = assay: Human NSCLC PDX model LXFA-586
From the text: (§1) Animals: Female NMRI nu/nu mice, 4 to 6 weeks of age.
Xenotransplantation: LXFA-586 established growing tumor (T2N1M0) from a primary non-small cell lung adenocarcinoma human patient.
(§2) Experimental procedure: Animals were monitored until the tumor implants reached the study volume criteria of 50-250 mm^3 (e.g., 80-200 mmi) in a sufficient number of animals. […] The process of the assignment to groups (enrollment, stratified randomization) may also be referred to as randomization. The day of randomization was designated as day 0 of the experiment.
(§3) Tumors were measured and mice were weighed twice a week during the experimental period. The first day of dosing was day 1, one day after randomization (day 0).

human NSCLC PDX LXFL-529 = assay: Human NSCLC PDX model LXFL-529
From the text: as §1
Xenotransplantation: LXFL-529 established growing tumor (T3N1M0) from a primary non-small cell lung adenocarcinoma human patient.
as §2, with “mm^3)” for “mmi)”
as §3

A431 cells = assay: In vitro cytotoxicity analysis (Crystal Violet), A431; conditions: Homo sapiens, A-431, read-out: Cell based Cytotoxicity assay, EC50 (nM) A431-6 hr; treated with ADC for 6 hours then washed off
Experimental: (§4) Plates were read at 570 nm. Data was analyzed using GraphPad Prism 6.
(§5) All ADCs were purified and characterized using SEC-HPLC for aggregation analysis, HIC-HPLC for DAR analysis, and cell-based assay with A431-A3 (MSLN^hi), A431 (MSLN^lo), and OVCAR3 (MSLN^hi) cell lines.

H226 cells = assay: In vitro cytotoxicity analysis (Crystal Violet), H226; type: cell-based; conditions: Homo sapiens
Experimental: as §4

[1] = test system: human mesothelioma HAY xenograft
Experimental: Female CD-1 IGS mice (Charles River, 7-9 weeks old) were used for the maximum tolerated dose (MTD) study, female NOD.CB17-SCID mice (Jackson Laboratory) were used for the NCI-H2110 and HAY xenograft studies, and female NCr nude mice (Taconic, 5 weeks old) were used for the NCI-N87 xenograft studies. Upon arrival, animals were acclimated for 5-7 days prior to inoculation.
Cryopreserved NCI-H2110, NCI-N87, or HAY cells from frozen stocks were cultured in medium containing necessary supplements.
Mice were injected subcutaneously with 100 μL/mouse of cell mixture and monitored for body weight and tumor growth.
Mice were randomized to five mice per group once tumor implants reached an average volume of 100 mm^3. Treatment was given intravenously at a volume of 200 μL. Terminal body weight was measured and recorded at the end of each study.
Comparison of tumor growth within each experimental group was also performed using the same statistical analysis.

[2] = test system: various cell lines (51 cell lines); assay: In vitro potency (IC50, Crystal Violet) in cell lines with varying mesothelin expression; type: cell-based
Experimental: Cytotoxicitly Cells were sub-cultured and seeded at 5,000 cells/well in complete growth medium in 96-well tissue culture plates, and incubated at 37° C., 5% CO2 overnight (16 hours). Test reagents were serially diluted 1:3 in 2 mL deep-well dilution plates, starting at 200 nM (10 dilutions total). Diluted samples (100 μL) were added to the cell plates (starting concentration of test samples at 100 nM). Plates were incubated at 37° C., 5% CO2 for an additional 5 days. Medium was then discarded, and plates were washed once with 200 μL DPBS, stained with 50 μL of 0.2% Crystal Violet solution at room temperature for 15 min, and then washed extensively with tap water. Plates were air-dried, and Crystal Violet was dissolved with 200 μL of 1% SDS solution. Plates were read at 570 nm. Data was analyzed for IC50 determination using GraphPad Prism 6. Correlation analysis was performed in GraphPad Prism using a non-parametric Spearman analysis.

HEC-251 cells = assay: In vitro cytotoxicity analysis (Crystal Violet), HEC-251; type: cell-based; conditions: Homo sapiens
Experimental: as §4

OVCAR3 cells = assay: In vitro cytotoxicity analysis (Crystal Violet), OVCAR3; type: cell-based; conditions: Homo sapiens
Experimental: as §4, §5

MSLN-positive cell lines = assay: In vitro cytotoxicity (IC50, Crystal Violet) on MSLN-positive cell lines (Example 11)
Experimental: Cytotoxicity: Cells were sub-cultured and seeded at 5,000 cells/well in complete growth medium in 96-well tissue culture plates, and incubated at 37° C., 5% CO2 overnight (16 hours). Test reagents were serially diluted 1:3 in 2 mL deep-well dilution plates, starting at 200 nM (10 dilutions total). Diluted samples (100 μL) were added to the cell plates (starting concentration of test samples at 100 nM). Plates were incubated at 37° C. 5% CO2 for an additional 5 days. Medium was then discarded, and plates were washed once with 200 μL DPBS, stained with 50 μL of 0.2% Crystal Violet solution at room temperature for 15 min, and then washed extensively with tap water. Plates were air-dried, and Crystal Violet was dissolved with 200 μL of 1% SDS solution. Plates were read at 570 nm. Data was analyzed for IC50 determination using GraphPad Prism 6.

[3] = test system: human mesothelioma PDX Meso7212; assay: Human mesothelioma PDX model Meso7212 (Example 3)
Experimental: NMRI nu/nu female mice (Janvier Labs, 5-6 weeks) were acclimated for at least 4 days upon arrival prior to inoculation. Animals was housed 3-5 mice per ventilated cage with sterilized food pellets and water bottle available ad lib. Animals were ear marked and weighed prior to study initiation.
Donor tumor tissue was cut into 2×2 mm fragments and placed in a sterile Petri dish covered with 0.9% saline. In parallel, the receptor animals were subcutaneously treated with the analgesic Metacam® (2 mg/kg) and then anaesthetized by a single intravenous injection (0.15 mL/mouse) with Etomidat-Lipuro® (12 mg/kg). A superficial vertical incision in the skin of 5-8 mm on the left flank was performed. The tip of a surgical scissor was inserted into the incision, directly over the flank, and was used to form a pocket in the subcutaneous space. One tumor fragment per mouse was implanted into the pocket using surgical tweezers. The incision was closed with a metal clip and the animals were placed back into a clean cage.
During tumor propagation, tumor diameters were measured using a digital caliper (Mitutoyo). Animals were randomly assigned into experimental groups according to their tumor volume (inclusion criteria for tumor volume, 0.1-0.3 cm^3). Tumor volumes and body weights were recorded twice weekly.
The administration volume was 10 mL/kg for intravenous injections throughout all experimental groups.
Descriptive statistics were performed on the data for tumor volume and body weight. Tumor volumes of animals from each treatment group were compared with the control group by using a repeated-measures two-way ANOVA, followed by a Bonferroni post-test. Additionally, the comparison of tumor growth of animals within each group was also performed with the same statistical analysis.

## C=C1C[C@@H]2CC[C@@]34C[C@H]5O[C@H]6[C@@H](O3)[C@H]3O[C@H](CC[C@@H]3O[C@H]6[C@H]5O4)CC(=O)C[C@@H]3[C@@H](OC)[C@@H](C[C@H](O)CN)O[C@H]3C[C@H]3O[C@@H](CC[C@@H]1O2)C[C@@H](C)C3=C [Eribulin, eribulin, reference compound]
Human NSCLC PDX LXFA-586; eribulin single dose of 3.2 mg/kg i.v., on day 21
  minimum T/C: 14.8%
Human NSCLC PDX LXFA-586; mouse, in vivo, iv, 3.2 mg/kg
  tolerability / bodyweight: slight and transient bodyweight loss
Human NSCLC PDX LXFL-529; eribulin single dose of 3.2 mg/kg (mouse MTD) i.v.
  anti-tumor efficacy: showed anti-tumor efficacy
Human NSCLC PDX LXFL-529; mouse, in vivo, iv, 3.2 mg/kg
  tolerability / bodyweight: slight and transient bodyweight loss
A431 cells
  EC50: 2.86 nM
H226 cells; NCI-H226, 120 h, Table 18, 5 days, read-out: Cell-Based Cytotoxicity Assay, EC50 (nM) H226
  EC50: 5.3 nM
H226 cells; NCI-H226, Table 19, payloads, read-out: Cell-Based Cytotoxicity Assay EC50 (nM) H226
  EC50: 5.3 nM
[1]; eribulin alone 0.1 mg/kg (equivalent molar amount as in MORAb-109)
  anti-tumor effect: limited anti-tumor effects
[1]; eribulin alone at the MTD (3.2 mg/kg)
  anti-tumor effect: limited anti-tumor effects
[2]; A431-K5 cells (MSLN MFI 1430.3)
  pIC50: 8.82
[2]; COV362, COV362 cells (MSLN MFI 113.5)
  pIC50: 8.56
[2]; HAC-2 cells (MSLN MFI 172.3)
  pIC50: 7.57
[2]; HEC-251, HEC-251 cells (MSLN MFI 53.3)
  pIC50: 9.30
[2]; HK-1, HK1 cells (MSLN MFI 39.2)
  pIC50: 9.05
[2]; HNE1, HNE-1 cells (MSLN MFI 110.8)
  pIC50: 9.06
[2]; HNE-1-T1 cells (MSLN MFI 79.3)
  pIC50: 8.99
[2]; Homo sapiens, A549, A549 cells (MSLN MFI 14.2)
  pIC50: 8.57
[2]; Homo sapiens, A-431, A431 cells (MSLN MFI 5.6)
  pIC50: 9.26
[2]; Homo sapiens, ASPC1, AsPC1 cells (MSLN MFI 33.47)
  pIC50: 8.79
[2]; Homo sapiens, BXPC-3, BxPC3 cells (MSLN MFI 15.59)
  pIC50: 9.18
[2]; Homo sapiens, CNE-2, CNE2 cells (MSLN MFI 147.7)
  pIC50: 9.31
[2]; Homo sapiens, Caov-3, CaOV-3 cells (MSLN MFI 137.6)
  pIC50: 9.36
[2]; Homo sapiens, Capan-2, Capan-2 cells (MSLN MFI 36)
  pIC50: 8.92
[2]; Homo sapiens, EGI-1, EGI-1 cells (MSLN MFI 14.8)
  pIC50: 8.83
[2]; Homo sapiens, HCC1806, HCC1806 cells (MSLN MFI 189.3)
  pIC50: 9.43
[2]; Homo sapiens, HEC-1-A, HEC-1-A cells (MSLN MFI 16.5)
  pIC50: 9.17
[2]; Homo sapiens, HEC-1B, HEC-1-B cells (MSLN MFI 16.9)
  pIC50: 9.27
[2]; Homo sapiens, HONE1, HONE1 cells (MSLN MFI 108.6)
  pIC50: 9.05
[2]; Homo sapiens, JIMT-1, JIMT-1 cells (MSLN MFI 36.4)
  pIC50: 9.41
[2]; Homo sapiens, Lu-65, Lu65 cells (MSLN MFI 13.13)
  pIC50: 9.25
[2]; Homo sapiens, MFE-280, MFE-280 cells (MSLN MFI 45.1)
  pIC50: 8.49
[2]; Homo sapiens, MKN-1, MKN1 cells (MSLN MFI 22.06)
  pIC50: 9.02
[2]; Homo sapiens, MKN-7, MKN7 cells (MSLN MFI 18.48)
  pIC50: 9.24
[2]; Homo sapiens, MKN-45, MKN45 cells (MSLN MFI 57.94)
  pIC50: 8.44
[2]; Homo sapiens, MKN-74, MKN74 cells (MSLN MFI 7.73)
  pIC50: 9.11
[2]; Homo sapiens, NCI-H23, NCI-H23 cells (MSLN MFI 4.42)
  pIC50: 9.22
[2]; Homo sapiens, NCI-H226, H226 cells (MSLN MFI 725.3)
  pIC50: 9.18
[2]; Homo sapiens, NCI-H292, NCI-H292 cells (MSLN MFI 108.6)
  pIC50: 9.24
[2]; Homo sapiens, NCI-H460, NCI-H460 cells (MSLN MFI 8.56)
  pIC50: 7.45
[2]; Homo sapiens, NCI-H1355, NCI-H1355 cells (MSLN MFI 11.5)
  pIC50: 9.17
[2]; Homo sapiens, NCI-H1650, NCI-H1650/MSLN cells (MSLN MFI 1865.5)
  pIC50: 9.08
[2]; Homo sapiens, NCI-H1650, NCI-H1650 cells (MSLN MFI 31.5)
  pIC50: 9.21
[2]; Homo sapiens, NCI-H2126, NCI-H2126 cells (MSLN MFI 73.6)
  pIC50: 9.28
[2]; Homo sapiens, NCI-N87, NCI-N87 cells (MSLN MFI 125.8)
  pIC50: 9.96
[2]; Homo sapiens, OVCAR-3, OVCAR3 A1 cells (MSLN MFI 220)
  pIC50: 9.82
[2]; Homo sapiens, PC-9, PC9 cells (MSLN MFI 11.24)
  pIC50: 9.25
[2]; Homo sapiens, SUNE1, SUNE1 cells (MSLN MFI 212.4)
  pIC50: 9.25
[2]; Homo sapiens, T47D, T-47D cells (MSLN MFI 4.4)
  pIC50: 9.17
[2]; Kuramochi cells (MSLN MFI 211.2)
  pIC50: 9.05
[2]; MOR/CPR cells (MSLN MFI 120.79)
  pIC50: 8.43
[2]; NCI-H322, NCI-H322 cells (MSLN MFI 83.9)
  pIC50: 9.34
[2]; NCI-H1355-Sorted cells (MSLN MFI 32.7)
  pIC50: 9.15
[2]; NCI-H1568, NCI-H1568/MSLN cells (MSLN MFI 4474)
  pIC50: 9.36
[2]; NCI-H2110, NCI-H2110 cells (MSLN MFI 112.2)
  pIC50: 9.49
[2]; SNU-216, SNU216 cells (MSLN MFI 94.91)
  pIC50: 8.75
[2]; SNU-245 cells (MSLN MFI 23.9)
  pIC50: 7.11
[2]; SNU-478 cells (MSLN MFI 53.8)
  pIC50: 8.80
[2]; SNU-1196 cells (MSLN MFI 40.2)
  pIC50: 8.94
[2]; TFK1 cells (MSLN MFI 132.81)
  pIC50: 8.90
HEC-251 cells; HEC-251, 120 h, Table 18, 5 days, read-out: Cell-Based Cytotoxicity Assay, EC50 (nM) HEC-251
  EC50: 0.2 nM
HEC-251 cells; HEC-251, Table 19, payloads, read-out: Cell-Based Cytotoxicity Assay EC50 (nM) HEC-251
  EC50: 0.2 nM
OVCAR3 cells; OVCAR-3, read-out: Cell based Cytotoxicity assay, EC50 (nM) OVCAR3-6 hr, treated with ADC for 6 hours then washed off
  EC50: 2.81 nM
OVCAR3 cells; OVCAR-3, read-out: Cell based Cytotoxicity assay, EC50 (nM) OVCAR3-72 hr, treated for 72 hours
  EC50: 0.25 nM
MSLN-positive cell lines; Homo sapiens, NCI-H292, read-out: In vitro cell based potency, IC50
  pIC50: 9.96
MSLN-positive cell lines; NCI-H292 cells (MSLN MFI 108.6)
  % Max Killing: 85.37%
MSLN-positive cell lines; NCI-H1568, read-out: In vitro cell based potency, IC50
  pIC50: 9.85
MSLN-positive cell lines; NCI-H1568/MSLN cells (MSLN MFI 4474.00)
  % Max Killing: 74.39%
MSLN-positive cell lines; OVCAR3-A1 cells (MSLN MFI 220.0)
  % Max Killing: 99.31%
MSLN-positive cell lines; read-out: In vitro cell based potency, IC50
  pIC50: 10.70
[3]; Meso7212 (MV15369), eribulin alone 0.2 mg/kg (equivalent molar amount)
  anti-tumor effect: limited anti-tumor effects
[3]; Meso7212 (MV16071), eribulin 0.3 mg/kg
  body weight change: No body weight loss
[3]; Meso7212 (MV16071), eribulin alone 0.3 mg/kg (equivalent molar amount)
  anti-tumor effect: limited or no anti-tumor effects
